Test [1] deals with σ^E-dependent rpoE P1::lacZ reporter (σ^E activity). Put plainly: Differential rate of β-galactosidase synthesis from the σ^E-dependent rpoE P1::lacZ reporter fusion. The format is cell-based, Rhodobacter sphaeroides. The following applies: for Rate (differential rate of β-galactosidase synthesis from the σ^E-dependent rpoE::lacZ fusion): WT cells, Aero (30% O2). As to the method: Bacterial strains and plasmids: R. sphaeroides 2.4.1 (wild-type, WT), R. sphaeroides with a mutant ChrR (ΔChrR) (chrR-1::drf; see Newman et al., supra.) or R. sphaeroides with both a mutant σ^E (Δσ^E) and ΔChrR (TF18; rpoEchrR-1::drf, see Schilke B & Donohue T, “ChrR positively regulates transcription of the Rhodobacter sphaeroides cytochrome c2 gene,” J. Bacteriol. 177:1929-1937 (1995), incorporated herein by reference as if set forth in its entirety) were grown at 30° C. in Sistrom's succinate-based minimal medium A. Media used for growth of strains containing low-copy lacZ reporter plasmids was supplemented with 25 μg/ml kanamycin.
Growth conditions: For aerobic respiratory growth, 500 ml of media was bubbled with a mixture of 69% N2, 30% O2 and 1% CO2 in the dark. Conversely, for photosynthetic growth, 500 ml of media was bubbled with a mixture of 95% N2 and 5% CO2 in front of an incandescent light source (10 W/m^2 as measured with a Yellow-Springs-Kettering model 6.5A radiometer through a Corning […] filter).
(§1) To test the effects of ^1O2, photosynthetic cultures were exposed to aerobic growth conditions (69% N2, 30% O2 and 1% CO2) in the presence or in the absence of light (10 W/m^2). Where indicated, light was passed through a 1283 filter (Kopp Glass; Pittsburgh, Pa.) that impedes >99% of light at wavelengths <770 nm, but transmits >45% of light at 830 nm and >80% of light at 900 nm. When using methylene blue (Sigma-Aldrich; St. Louis, Mo.) to generate ^1O2, a final concentration of 1 μM was added to aerobic cultures in the presence or in the absence of incandescent light (10 W/m^2). To test the effects of other ROS, 0.5 mM H2O2, 1 mM diamide or 1 mM paraquat (Sigma-Aldrich) was added to aerobic cultures.
Determining promoter activity: Promoter activity was determined by measuring β-galactosidase activity from a low copy rpoE P1::lacZ reporter plasmid or a trxA::lacZ reporter plasmid. The promoter for the thioredoxin gene (trxA, −214 to +27 relative to the known transcription initiation site) was fused to lacZ and mobilized into R. sphaeroides.
β-galactosidase activity (units/ml of culture) was calculated as follows: (A420×1000)/(Cell volume in assay (ml)×Time of assay (min)). Culture density was typically monitored by measuring A600 in a BioSpec 1601 spectrophotometer (Schimatzu; Columbia, Md.). The density of cultures treated with methylene blue was monitored at 500 nm because methylene blue absorbs light between 609-668 nm. The differential rate of β-galactosidase synthesis was determined by calculating the slope from plots of enzyme activity (units/ml of culture) against optical density. All experiments were repeated a minimum of three times with differential rates of β-galactosidase synthesis typically deviating less than two-fold between experiments.

Test [2] deals with trxA::lacZ reporter (trx promoter). The format is cell-based, Rhodobacter sphaeroides.
Description: To test the effects of ^1O2, photosynthetic cultures were exposed to aerobic growth conditions (69% N2, 30% O2 and 1% CO2) in the presence or in the absence of light (10 W/m^2). Where indicated, light was passed through a 1283 filter (Kopp Glass; Pittsburgh, Pa.) that impedes >99% of light at wavelengths <770 nm, but transmits >45% of light at 830 nm and >80% of light at 900 nm. When using methylene blue (Sigma-Aldrich; St. Louis, Mo.) to generate ^1O2, a final concentration of 1 μM was added to aerobic cultures in the presence or in the absence of incandescent light (10 W/m^2). […]
Determining promoter activity: Promoter activity was determined by measuring β-galactosidase activity from a low copy rpoE P1::lacZ reporter plasmid or a trxA::lacZ reporter plasmid. […]
β-galactosidase activity (units/ml of culture) was calculated as follows: (A420×1000)/(Cell volume in assay (ml)×Time of assay (min)). Culture density was typically monitored by measuring A600 in a BioSpec 1601 spectrophotometer (Schimatzu; Columbia, Md.). The density of cultures treated with methylene blue was monitored at 500 nm because methylene blue absorbs light between 609-668 nm. The differential rate of β-galactosidase synthesis was determined by calculating the slope from plots of enzyme activity (units/ml of culture) against optical density. […]
Test [3] has as its system σ^E-dependent rpoE P1::lacZ reporter (σ^E activity). The following applies: cited from earlier work.
In test [4] the test system is R. sphaeroides Δσ^E mutant. Put plainly: Growth and viability of aerobically grown cells treated with methylene blue in the presence of light. The format is cell-based, Rhodobacter sphaeroides. The following applies: methylene blue + light (1O2), FIG. 3. As to the method:
as §1
All experiments were initiated when cultures reached ˜2×10^8 cfu/ml to minimize light or O2 limitation to photosynthetic and aerobic cells, respectively. To measure cell viability, samples were removed, diluted and plated in media supplemented with 25 μg/ml kanamycin to select for the rpoE P1::lacZ reporter plasmid. The whole cell abundance of carotenoids was measured as described in Cohen-Bazire G, et al., “Kinetic studies of pigment synthesis by non-sulfur purple bacteria,” J. Cell Physiol. 49:25-68 (1957). […]

[5] abbreviates: WT cells grown aerobically, 0.5 mM H2O2, 1 mM diamide or 1 mM paraquat, untreated = 11.

Like-named read-outs stand apart in the source and are kept apart here.

Regarding `OO` [H2O2, hydrogen peroxide], in test [1], the “Change of differential rate of β-galactosidase synthesis from the σ^E-dependent reporter fusion compared to untreated cells” value is on record as “no more than 1.2 fold” and the “rpoE P1::lacZ fusion (differential rate of β-galactosidase synthesis)” value came out at 13. Also, the “trxA::lacZ fusion (differential rate of β-galactosidase synthesis)” value in test [2] stood at 220.

With `C[n+]1ccc(-c2cc[n+](C)cc2)cc1` [Paraquat, paraquat], in test [1] (setting [5]), the “rpoE P1::lacZ fusion (differential rate of β-galactosidase synthesis)” value was determined as 6. Also, in test [1] (aerobic WT cells, 0.5 mM H2O2 or 1 mM paraquat), the “Change of differential rate of β-galactosidase synthesis from the σ^E-dependent reporter fusion compared to untreated cells” value is “decreased”. Also, in test [2] (WT cells grown aerobically, 0.5 mM H2O2 or 1 mM paraquat, untreated = 185), the “trxA::lacZ fusion (differential rate of β-galactosidase synthesis)” value came to 450.

In the case of `CN(C)C(=O)/N=N/C(=O)N(C)C` [Diamide, diamide], in test [3], the “σ^E activity upon exposure to the compound (previous work)” value was “does not increase”. Further, the “rpoE P1::lacZ fusion (differential rate of β-galactosidase synthesis)” value in test [1] (setting [5]) is recorded as 3.

Regarding `CN(C)c1ccc2nc3ccc(=[N+](C)C)cc-3sc2c1` [methylene blue], in test [1] (WT aerobic cells, 1 μM methylene blue, light and O2), the “Increase of differential rate of β-galactosidase synthesis from rpoE P1::lacZ compared to aerobic cells grown without methylene blue” value is roughly 20 fold. Besides, in test [1] (WT aerobic cultures, methylene blue in the dark), the “Increase of rate of β-galactosidase synthesis from rpoE P1::lacZ” value is on record as “two-fold”. In addition, the “Rate (differential rate of β-galactosidase synthesis from the σ^E-dependent rpoE::lacZ fusion)” value came to 151 in test [1] (1 μM methylene blue + light (generates 1O2)) and 8 in test [1] (1 μM methylene blue, dark (no 1O2)). Also, the “Effect on Δσ^E mutant when carotenoids are low (OD500nm, cfu/ml)” value in test [4] is recorded as “bacteriocidal”.

The record behind these values is patent US8003390B2, “Responses to singlet oxygen” (Wisconsin Alumni Research Foundation, priority 2005, dated 2011).
